Laboratory results: patent publication US20150338397A1, “Use of Bufodienolides in Diagnosing and Treating Essential Hypertension” (priority 2014, published 2015)

Assays:
angiotensin-infused rats = experiment: Systolic blood pressure in angiotensin-infused rats (ANG); type: in vivo; conditions: FIG. 1
Text: (§1) FIG. 1. Mean systolic blood pressure (BP) values in sham (SHM) animals, angiotensin-infused rats (ANG), angiotensin infused animals given resibufogenin (ANGR), normal rats rendered hypertensive by the infusion of saline (volume expansion induced hypertensive rats) (NDS), NDS rats given resibufogenin (NDSR).

[1] = in vitro; cited from earlier work
[2] = test system: volume expansion induced hypertensive rats; experiment: Systolic blood pressure in saline volume expansion induced hypertensive rats (NDS); type: in vivo; conditions: NDS rats given resibufogenin (NDSR) vs NDS; FIG. 1
Text: as §1

[3] = test system: volume expansion-mediated hypertension; conditions: experimental animals; cited from earlier work
[4] = test system: animals subjected to angiotensin excess; conditions: cited from earlier work
[5] = test system: rodent brain contusion model; conditions: given 1 hour after the insult; cited from earlier work
[6] = test system: preeclampsia in animal models; conditions: cited from earlier work

angiotensin (DRVYIHPF; Angiotensin-2; UniProt P01019 25-32, looked up) [the major vasoconstrictor in the human body; infused to render rats hypertensive]
Mean systolic blood pressure (BP), effect of angiotensin infusion (angiotensin-infused rats; angiotensin-infused rats (ANG) vs sham (SHM)): raised blood pressure equivalently

C[C@]12CC[C@H](O)C[C@@]1(O)CC[C@@H]1[C@@H]2CC[C@]2(C)[C@@H](c3ccc(=O)oc3)C[C@H]3O[C@]132 [MBG, marinobufagenin]
Vasoconstrictor action [1]: acts in vitro as a vasoconstrictor

C[C@]12CC[C@H](O)C[C@H]1CC[C@@H]1[C@@H]2CC[C@]2(C)[C@@H](c3ccc(=O)oc3)C[C@H]3O[C@]132 [RBG, epoxy-3β-hydroxy-5β-bufa-20,22-dienolide]
Mean systolic blood pressure (BP) [2]: reduced blood pressure | Mean systolic blood pressure (BP) (angiotensin-infused rats; angiotensin infused animals given resibufogenin (ANGR) vs ANG): only in the volume expanded animals | Blood pressure elevations [3]: resolves blood pressure elevations | Elevated blood pressure [4]: does not lower elevated blood pressure | Tissue injury [5]: amelioration of tissue injury | Prevention of preeclampsia [6]: prevents preeclampsia
